Reference: publication PMC3614957 (PLoS ONE, 2013)

What was measured:
[1] = design: method as in 2 sources, one per row (each row's own in cited_ref): ref 35 = [35]; PMID 14514352; doi:10.1042/BJ20031350; 35 Veiga S , Henriques S , Santos NC , Castanho MARB ( 2004 ) Putative role of membranes in the HIV fusion inhibitor enfuvirtide mode of action at the molecular level . Biochem J 377 : 107 – 110 . 145 ||| ref 8, 29 = [8]; PMID 18410103; doi:10.1021/ja711247n; 8 Franquelim HG , Loura LM , Santos NC , Castanho MARB ( 2008 ) Sifuvirtide screens rigid membrane surfaces. establishment of a correlation between efficacy and membrane domain selectivity among HIV f || [29]; PMID 21075080; doi:10.1016/j.bbrc.2010.11.013; 29 Matos PM , Freitas T , Castanho MARB , Santos NC ( 2010 ) The role of blood cell membrane lipids on the mode of action of HIV-1 fusion inhibitor sifuvirtide . Biochem Biophys Res Commun 403 : 270 –; settings: cited from earlier work
[2] = Membrane dipole potential assessed by di-8-ANEPPS, labeled lipid vesicles; format: physicochemical; settings: di-8-ANEPPS labeled LUV, control additions (data not shown)
Procedure: (§1) Human blood samples were obtained from healthy volunteers, with their previous written informed consent, at the Instituto Português do Sangue (Lisbon, Portugal). This study was approved by the ethics committee of the Faculdade de Medicina da Universidade de Lisboa. Isolation of erythrocytes and PBMC and labeling of these cells with di-8-ANEPPS (Invitrogen, Carlsbad, CA, USA) were performed as described before, [29]. […] They were incubated at 1% hematocrit in buffer supplemented with 0.05% (m/v) Pluronic F-127 (Sigma) and di-8-ANEPPS 10 µM. PBMC were isolated by density gradient using Ficoll-Paque Plus (GE Healthcare, Little Chalfont, UK) and counted in a Neubauer improved hemocytometer. They were incubated at 3000 cells/µL in Pluronic-supplemented buffer with 3.3 µM di-8-ANEPPS. Cells were incubated with the fluorescent probe during 1 h, with gentle agitation, and unbound probe was washed with Pluronic-free buffer on two centrifugation cycles. […] For lipid vesicles labeling, suspensions with […] of total lipid were incubated overnight with di-8-ANEPPS 10 µM, to ensure maximum incorporation of the probe. The maximum concentration of DMSO or DMSO:ethanol in the suspensions was 2.4% (v/v) at 6 µM of peptide or cholesterol. […] The variation of R with the peptide concentration was analyzed by a single binding site model: [drawing 5] […]

PBMC = experiment: Membrane dipole potential assessed by di-8-ANEPPS, PBMC; format: cell-based, human; settings: up to 6 µM
Procedure: as §1

human erythrocytes = experiment: Membrane dipole potential assessed by di-8-ANEPPS, erythrocytes; format: cell-based; settings: up to 6 µM
Procedure: as §1

Row | Compound | binding to POPC vesicles [1] | changes on the dipole potential [2] | effect on membrane dipole potential (PBMC) | effect on membrane dipole potential (human erythrocytes)
1 | sifuvirtide | residual binding |  |  | 
2 | CC(C)CCC[C@@H](C)[C@H]1CC[C@H]2[C@@H]3CC=C4C[C@@H](O)CC[C@]4(C)[C@H]3CC[C@]12C [cholesterol] |  | no changes | not sufficient to induce a detectable membrane potential change | not sufficient to induce a detectable membrane potential change
